Source: US20110294155A1, “MODULATION OF AN ION CHANNEL OR RECEPTOR” (Howard Florey Institute, priority 2008, published 2011)
Entries after “also recorded” stand apart in the source; their conditions may differ.

Molecular target: skeletal muscle Nav1.4 sodium channels (Homo sapiens, UniProt P35499)
Test: Dynamic clamp whole cell assay of action potential firing at HEK cells expressing Nav1.4 sodium channels
Format: cell-based
Protocol: Twenty-four hours prior to experimentation, cells were dissociated using Versene (EDTA) and plated at 10-12% confluency onto coverslips. The following day the coverslips were placed into the recording chamber and held at 22-25° C. for the duration of the experiments.
Borosilicate glass pipettes (WPI) were used for the whole cell assay. These pipettes were filled with an intracellular solution containing (mM): 10 NaF, 110 CsF, 20 TEA.Cl, 2 ethylene glycol tetraacetic acid and 10 HEPES, with pH adjusted to 7.4 using CsOH and osmolarity adjusted to 310 mosmol/L with sucrose.
The bath solution contained in (mM): 141 NaCl, 4 KCl, 1.0 MgCl2, 1.8 CaCl2, 10 HEPES buffer, and 4 tetraethylammonium (TEA).Cl, with pH adjusted to 7.4 with NaOH and osmolarity adjusted to 310 mosmol/L with sucrose. Bath temperature was controlled using a Warner Instruments (Hamden, Conn.) controller (TC-344B) with inline solution and bath heating.
Electrophysiological recordings were made 10 minutes after establishing whole cell recording. Recordings were made on an EPC-9 patch clamp amplifier (Heka Instruments, Lambrecht, Germany) filtered at 14.4 kHz with >80% series resistance compensation and sampled at 50 kHz. The current monitor output from the EPC-9 was fed into the analogue input channel of a data acquisition card.
The model runs in polling mode using the ode5 fixed time step solver with a step size of 50 μS.
The dynamic clamp system was configured to account for leak conductance, and to also simulate the function of potassium channels, which were not present in the HEK cell.
Following attainment of a whole cell clamp in the HEK cell, a period of 10 minutes was allowed for diffusion of the pipette solution into the intracellular volume of the cell. During this period cells were held at −85 mV.
Control was transferred to the Simulink system and a range of current injections were trialled to achieve a steady state action potential firing of 50-100 Hz (FIG. 8). This firing was stable and continued as long as a stimulating current injection was maintained. […]

skeletal muscle Nav1.4 sodium channels, sequence (P35499 whole entry): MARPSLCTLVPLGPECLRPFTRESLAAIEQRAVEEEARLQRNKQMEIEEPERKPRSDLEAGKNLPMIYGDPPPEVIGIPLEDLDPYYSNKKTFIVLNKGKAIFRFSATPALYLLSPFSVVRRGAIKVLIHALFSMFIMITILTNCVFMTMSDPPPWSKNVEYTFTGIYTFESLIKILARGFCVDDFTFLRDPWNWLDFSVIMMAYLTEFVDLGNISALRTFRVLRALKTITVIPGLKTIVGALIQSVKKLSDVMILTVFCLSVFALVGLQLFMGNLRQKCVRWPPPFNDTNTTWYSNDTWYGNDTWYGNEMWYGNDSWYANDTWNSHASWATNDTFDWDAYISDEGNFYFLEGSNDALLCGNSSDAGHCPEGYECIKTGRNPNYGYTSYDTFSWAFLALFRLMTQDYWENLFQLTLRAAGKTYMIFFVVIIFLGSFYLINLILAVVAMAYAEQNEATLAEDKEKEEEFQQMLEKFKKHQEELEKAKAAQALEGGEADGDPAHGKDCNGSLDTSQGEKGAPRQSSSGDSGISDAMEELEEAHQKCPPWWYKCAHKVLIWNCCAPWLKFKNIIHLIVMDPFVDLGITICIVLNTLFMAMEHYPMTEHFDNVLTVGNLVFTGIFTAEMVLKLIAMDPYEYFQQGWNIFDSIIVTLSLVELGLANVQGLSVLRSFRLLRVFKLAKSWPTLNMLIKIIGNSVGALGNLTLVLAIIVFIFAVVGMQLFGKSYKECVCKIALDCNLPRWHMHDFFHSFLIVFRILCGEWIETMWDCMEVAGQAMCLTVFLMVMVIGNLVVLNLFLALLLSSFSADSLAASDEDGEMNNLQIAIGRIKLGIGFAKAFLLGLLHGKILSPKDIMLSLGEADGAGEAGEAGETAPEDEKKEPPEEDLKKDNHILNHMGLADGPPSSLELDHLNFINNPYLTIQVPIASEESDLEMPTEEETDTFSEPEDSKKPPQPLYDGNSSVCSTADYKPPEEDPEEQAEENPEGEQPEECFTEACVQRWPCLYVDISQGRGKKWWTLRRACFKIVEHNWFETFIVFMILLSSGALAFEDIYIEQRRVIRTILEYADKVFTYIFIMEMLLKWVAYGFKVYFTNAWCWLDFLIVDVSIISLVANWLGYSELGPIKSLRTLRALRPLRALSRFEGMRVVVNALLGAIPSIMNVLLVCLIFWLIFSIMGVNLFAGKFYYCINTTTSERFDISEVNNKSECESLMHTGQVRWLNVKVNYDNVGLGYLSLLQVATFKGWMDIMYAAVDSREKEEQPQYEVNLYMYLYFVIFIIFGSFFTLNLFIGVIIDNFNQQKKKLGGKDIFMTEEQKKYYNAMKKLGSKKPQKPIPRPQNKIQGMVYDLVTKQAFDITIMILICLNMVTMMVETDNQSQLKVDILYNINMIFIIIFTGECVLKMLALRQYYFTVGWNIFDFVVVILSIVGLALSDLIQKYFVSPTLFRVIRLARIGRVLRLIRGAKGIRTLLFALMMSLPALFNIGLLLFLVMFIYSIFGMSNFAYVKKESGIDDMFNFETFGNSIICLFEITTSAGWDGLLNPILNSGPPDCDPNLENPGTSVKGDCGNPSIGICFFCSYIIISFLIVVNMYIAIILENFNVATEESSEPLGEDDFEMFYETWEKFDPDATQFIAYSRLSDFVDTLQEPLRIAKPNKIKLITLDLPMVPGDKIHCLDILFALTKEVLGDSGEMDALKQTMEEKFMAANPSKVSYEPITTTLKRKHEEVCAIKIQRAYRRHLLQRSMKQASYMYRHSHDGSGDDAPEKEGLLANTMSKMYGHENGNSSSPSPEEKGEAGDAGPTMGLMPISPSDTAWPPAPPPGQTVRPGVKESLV

`NC(=O)N1c2ccccc2C=Cc2ccccc21` [carbamazepine] was tested, and the “action potential firing rate” value (50 μM in bath solution perfused onto HEK cells expressing Nav1.4, steady state firing of 50-100 Hz before compound) was “decreased the action potential firing rate; also recorded: decrease in action potential firing rate” and the “number of action potentials elicited by a stimulating current step” value (continued presence of 50 μM, HEK cells expressing Nav1.4, no further firing would occur) was 2-3.
